Patent US11203613B2, “Peptidomimetic proteasome inhibitors” (CORNELL UNIVERSITY, priority 2017, dated 2021)

Target: Human Constitutive (Hu C-20S) β5 Active Subunit (Homo sapiens, UniProt P28074)
Assay: IC50 determination, human constitutive 20S proteasome β5c (suc-LLVY-AMC hydrolysis)
Assay type: biochemical
Settings: Table 3; IC50 against human constitutive β5 active subunit; read-out: Hu-C20S β5

Structure (SMILES)	IC50
CCS(=O)(=O)N[C@@H](CC(=O)N1CCCC[C@@H]1C)C(=O)N[C@@H](C)c1ncc(-c2ccc(F)cc2F)[nH]1 [CEN-86, (S)—N—((S)-1-(5-(2,4-Difluorophenyl)-1H-imidazol-2-yl)ethyl)-2-(ethylsulfonamido)-4-((S)-2-methylpiperidin-1-yl)-4-oxobutanamide]	28.2 µM
C[C@H](NC(=O)[C@H](CC(=O)N1CCCC[C@@H]1C)NC(=O)CCC1CC1)c1ncc(-c2ccc(F)cc2F)[nH]1 [CEN-87, (S)-2-(3-Cyclopropylpropanamido)-N—((S)-1-(5-(2,4-difluorophenyl)-1H-imidazol-2-yl)ethyl)-4-((S)-2-methylpiperidin-1-yl)-4-oxobutanamide]	11.7 µM
CC(C)CCC(=O)N[C@@H](CC(=O)N1CCCC[C@@H]1C)C(=O)N[C@@H](C)c1ncc(-c2ccc(F)cc2F)[nH]1 [CEN-88, N—((S)-1-(((S)-1-(5-(2,4-Difluorophenyl)-1H-imidazol-2-yl)ethyl)amino)-4-((S)-2-methylpiperidin-1-yl)-1,4-dioxobutan-2-yl)-4-methylpentanamide]	15.1 µM
C[C@H](NC(=O)[C@H](CC(=O)N1CCC[C@@H]1C)NC(=O)CCC(C)(C)C)c1ncc(-c2ccc(F)cc2F)[nH]1 [CEN-89, N—((S)-1-(((S)-1-(5-(2,4-Difluorophenyl)-1H-imidazol-2-yl)ethyl)amino)-4-((S)-2-methylpyrrolidin-1-yl)-1,4-dioxobutan-2-yl)-4,4-dimethylpentanamide]	5.7 µM
CC(C)CCC(=O)N[C@@H](CC(=O)N1CCCCCC1)C(=O)N[C@@H](C)c1ncc(-c2ccc(F)cc2F)[nH]1 [CEN-90, N—((S)-4-(Azepan-1-yl)-1-(((S)-1-(5-(2,4-difluorophenyl)-1H-imidazol-2-yl)ethyl)amino)-1,4-dioxobutan-2-yl)-4-methylpentanamide]	10.2 µM
CC(C)CCC(=O)N[C@@H](CC(=O)N1CCCC[C@H]1C)C(=O)N[C@@H](C)c1ncc(-c2ccc(F)cc2F)[nH]1 [CEN-91, N—((S)-1-(((S)-1-(5-(2,4-Difluorophenyl)-1H-imidazol-2-yl)ethyl)amino)-4-((R)-2-methylpiperidin-1-yl)-1,4-dioxobutan-2-yl)-4-methylpentanamide]	10.5 µM
CC(C)CCC(=O)N[C@@H](CC(=O)N1CCOC[C@@H]1C)C(=O)N[C@@H](C)c1ncc(-c2ccc(F)cc2F)[nH]1 [CEN-92, N—((S)-1-(((S)-1-(5-(2,4-Difluorophenyl)-1H-imidazol-2-yl)ethyl)amino)-4-((S)-3-methylmorpholino)-1,4-dioxobutan-2-yl)-4-methylpentanamide]	15.2 µM
C[C@H](NC(=O)[C@H](CC(=O)N1CCCC[C@@H]1C)NC(=O)c1cn(C)cn1)c1ncc(-c2ccc(F)cc2F)[nH]1 [CEN-93, N—((S)-1-(((S)-1-(5-(2,4-Difluorophenyl)-1H-imidazol-2-yl)ethyl)amino)-4-((S)-2-methylpiperidin-1-yl)-1,4-dioxobutan-2-yl)-1-methyl-1H-imidazole-4-carboxamide]	10.9 µM
Cc1cc(C(=O)N[C@@H](CC(=O)N2CCCC[C@@H]2C)C(=O)N[C@@H](C)c2ncc(-c3ccc(F)cc3F)[nH]2)no1 [CEN-94, N—((S)-1-(((S)-1-(5-(2,4-Difluorophenyl)-1H-imidazol-2-yl)ethyl)amino)-4-((S)-2-methylpiperidin-1-yl)-1,4-dioxobutan-2-yl)-5-methylisoxazole-3-carboxamide]	5.5 µM
CC(C)c1noc(N[C@@H](CC(=O)N2CCCC[C@@H]2C)C(=O)N[C@@H](C)c2ncc(-c3ccc(F)cc3F)[nH]2)n1 [CEN-95, (S)—N—((S)-1-(5-(2,4-Difluorophenyl)-1H-imidazol-2-yl)ethyl)-2-((3-isopropyl-1,2,4-oxadiazol-5-yl)amino)-4-((S)-2-methylpiperidin-1-yl)-4-oxobutanamide]	2.3 µM
C[C@H](NC(=O)[C@H](CC(=O)N1CCCC[C@@H]1C)NC(=O)C1CC(C)(C)C1)c1ncc(-c2ccc(F)cc2F)[nH]1 [CEN-96, N—((S)-1-(((S)-1-(5-(2,4-difluorophenyl)-1H-imidazol-2-yl)ethyl)amino)-4-((S)-2-methylpiperidin-1-yl)-1,4-dioxobutan-2-yl)-3,3-dimethylcyclobutane-1-carboxamide]	5.7 µM
CC(C)C1CC1C(=O)N[C@@H](CC(=O)N1CCCC[C@@H]1C)C(=O)N[C@@H](C)c1ncc(-c2ccc(F)cc2F)[nH]1 (stereo partly drawn) [CEN-97, N—((S)-1-(((S)-1-(5-(2,4-Difluorophenyl)-1H-imidazol-2-yl)ethyl)amino)-4-((S)-2-methylpiperidin-1-yl)-1,4-dioxobutan-2-yl)-2-isopropylcyclopropane-1-carboxamide]	4.8 µM
C[C@H](NC(=O)[C@H](CC(=O)N1CCCC[C@@H]1C)NC(=O)c1cncs1)c1ncc(-c2ccc(F)cc2F)[nH]1 [CEN-98, N—((S)-1-(((S)-1-(5-(2,4-Difluorophenyl)-1H-imidazol-2-yl)ethyl)amino)-4-((S)-2-methylpiperidin-1-yl)-1,4-dioxobutan-2-yl)thiazole-5-carboxamide]	7.1 µM
C[C@H](NC(=O)[C@H](CC(=O)N1CCCC[C@@H]1C)NC(=O)CCC(C)(C)C)c1ncc(-c2ccc(F)cc2F)[nH]1 [CEN-99, N—((S)-1-(((S)-1-(5-(2,4-Difluorophenyl)-1H-imidazol-2-yl)ethyl)amino)-4-((S)-2-methylpiperidin-1-yl)-1,4-dioxobutan-2-yl)-4,4-dimethylpentanamide]	8.5 µM
CC[C@H]1CCCCN1C(=O)C[C@H](NC(=O)CCC(C)C)C(=O)N[C@@H](C)c1ncc(-c2ccc(F)cc2F)[nH]1 [CEN-100, N—((S)-1-(((S)-1-(5-(2,4-Difluorophenyl)-1H-imidazol-2-yl)ethyl)amino)-4-((S)-2-ethylpiperidin-1-yl)-1,4-dioxobutan-2-yl)-4-methylpentanamide]	4.4 µM
C[C@H](NC(=O)N(CC(=O)N1CCCC[C@@H]1C)NC(=O)CCC(C)(C)C)c1ncc(-c2ccc(F)cc2F)[nH]1 [CEN-101, N—((S)-1-(5-(2,4-Difluorophenyl)-1H-imidazol-2-yl)ethyl)-2-(4,4-dimethylpentanoyl)-1-(2-((S)-2-methylpiperidin-1-yl)-2-oxoethyl)hydrazine-1-carboxamide]	7.6 µM
C[C@H](NC(=O)[C@H](CC(=O)N1CCCC[C@@H]1C)NC(=O)Cc1ccccc1)c1ncc(-c2ccc(F)cc2F)[nH]1 [CEN-102, (S)—N—((S)-1-(5-(2,4-Difluorophenyl)-1H-imidazol-2-yl)ethyl)-4-((S)-2-methylpiperidin-1-yl)-4-oxo-2-(2-phenylacetamido)butanamide]	10.2 µM
C[C@H](NC(=O)[C@H](CC(=O)N1CCCC[C@@H]1C)NCC(=O)c1ccccc1)c1ncc(-c2ccc(F)cc2F)[nH]1 [CEN-103, (S)—N—((S)-1-(5-(2,4-Difluorophenyl)-1H-imidazol-2-yl)ethyl)-4-((S)-2-methylpiperidin-1-yl)-4-oxo-2-((2-oxo-2-phenylethyl)amino)butanamide]	15.2 µM
CC(C)CS(=O)(=O)N[C@@H](CC(=O)N1CCCC[C@@H]1C)C(=O)N[C@@H](C)c1ncc(-c2ccc(F)cc2F)[nH]1 [CEN-104, (S)—N—((S)-1-(5-(2,4-Difluorophenyl)-1H-imidazol-2-yl)ethyl)-4-((S)-2-methylpiperidin-1-yl)-2-((2-methylpropyl)sulfonamido)-4-oxobutanamide]	4.9 µM
